From patent US20240308960A1 (Sumitomo Pharma Co., Ltd., priority 2021, published 2024)

molecular target: T1, Human orexin receptor type 2 (Homo sapiens, UniProt O43614); test: Test Example 1: agonist activity for orexin receptor type 2 (aequorin luminescence, intracellular calcium mobilization); conditions: compound 10 μm; CHO cells transiently expressing human orexin receptor type 2 and apoaequorin; relative percentage of luminescence for the luminescence (100%) of Orexin A (100 μM)
T1 sequence (O43614 1-444): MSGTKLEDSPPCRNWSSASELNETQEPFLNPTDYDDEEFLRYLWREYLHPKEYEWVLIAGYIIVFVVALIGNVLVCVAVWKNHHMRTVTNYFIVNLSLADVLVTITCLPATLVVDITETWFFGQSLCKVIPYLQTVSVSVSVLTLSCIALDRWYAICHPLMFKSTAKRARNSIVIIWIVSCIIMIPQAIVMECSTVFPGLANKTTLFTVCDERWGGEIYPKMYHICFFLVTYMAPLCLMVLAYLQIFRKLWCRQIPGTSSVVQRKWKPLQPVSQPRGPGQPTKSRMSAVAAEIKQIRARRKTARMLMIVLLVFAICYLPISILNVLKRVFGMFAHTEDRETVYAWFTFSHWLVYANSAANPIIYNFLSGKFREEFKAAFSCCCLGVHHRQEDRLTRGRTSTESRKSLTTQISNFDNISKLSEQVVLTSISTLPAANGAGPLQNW
Method: Human orexin receptor type 2 and apoaequorin were transiently expressed in CHO cells, and the agonist activity was evaluated based on intracellular calcium mobilization with ligand stimulation. The CHO cells transiently-expressed human orexin receptor type 2 and apoaequorin were seeded on a 384-well plate by 2,000 cells/well, and then incubated for 16-22 hours. After the plate was returned to room temperature, Coelenterazine hcp (final concentration: 1 μM) was added to the plate, and the plate was allowed to stand at room temperature for 2 hours. And then, Orexin A or each test compound was added to the plate, and the luminescence of the cells was measured with FDSS7000 (Hamamatsu Photonics K. K.), wherein Orexin A and each test compound were dissolved in DMSO (final concentration: 0.1%), and diluted with a buffer (Hanks, 20 mM HEPES, 0.1% BSA). The agonist activity of each test compound for orexin receptor type 2 was calculated as relative percentage of luminescence for the luminescence (100%) of Orexin A (100 μM).

| SMILES | Agonist Activity (%) |
| --- | --- |
| Cc1ccc(C2(C)CCN(C(=O)Nc3c(Cl)cccc3N3CCN(C(C)C)CC3)CC2)cc1 [Example 77, N-{2-chloro-6-[4-(propan-2-yl)piperazin-1-yl]phenyl}-4-methyl-4-(4-methylphenyl)piperidine-1-carboxamide] | 158% |
| CCc1nc(C2(C)CCN(C(=O)Nc3c(F)cccc3N3CCN(C(C)C)CC3)CC2)no1 [Example 82, 4-(5-ethyl-1,2,4-oxadiazol-3-yl)-N-{2-fluoro-6-[4-(propan-2-yl)piperazin-1-yl]phenyl}-4-methylpiperidine-1-carboxamide] | 156% |
| Cc1ccc(C2CCN(C(=O)Nc3cccc(F)c3N3CCN(C(C)C)CC3)CC2)cc1 [Example 11, N-{3-fluoro-2-[4-(propan-2-yl)piperazin-1-yl]phenyl}-4-(4-methylphenyl)piperidine-1-carboxamide] | 142% |
| COc1cccc(N2CCN(C(C)C)CC2)c1NC(=O)N1CCC(C)(c2noc(C(C)C)n2)CC1 [Example 21, N-{2-methoxy-6-[4-(propan-2-yl)piperazin-1-yl]phenyl}-4-methyl-4-[5-(propan-2-yl)-1,2,4-oxadiazol-3-yl]piperidine-1-carboxamide] | 156% |
| COc1cccc(N2CCN(C(C)C)CC2)c1NC(=O)N1CCC(c2ccc(C)cc2)CC1 [Example 8, N-{2-methoxy-6-[4-(propan-2-yl)piperazin-1-yl]phenyl}-4-(4-methylphenyl)piperidine-1-carboxamide] | 145% |
| CCN1CCN(c2ccccc2NC(=O)N2CCC(c3nc4ccccc4o3)CC2)CC1 [Example 2, 4-(1,3-benzoxazol-2-yl)-N-[2-(4-ethylpiperazin-1-yl)phenyl]piperidine-1-carboxamide] | 35% |
| CC(C)N1CC=C(c2cccc(Cl)c2NC(=O)N2CCC(C)(c3noc(C4CC4)n3)CC2)CC1 [Example 130, N-{2-chloro-6-[1-(propan-2-yl)-1,2,3,6-tetrahydropyridin-4-yl]phenyl}-4-(5-cyclopropyl-1,2,4-oxadiazol-3-yl)-4-methylpiperidine-1-carboxamide] | 142% |
| CC(C)N1CCN(c2cccc(F)c2NC(=O)N2CCC(C)(c3cc(C4CC4)on3)CC2)CC1 [Example 54, 4-(5-cyclopropyl-1,2-oxazol-3-yl)-N-{2-fluoro-6-[4-(propan-2-yl)piperazin-1-yl]phenyl}-4-methylpiperidine-1-carboxamide] | 140% |
| CC(C)c1ncc(-c2cccc(F)c2NC(=O)N2CCC(C)(c3noc(C4CC4)n3)CC2)cn1 [Example 72, 4-(5-cyclopropyl-1,2,4-oxadiazol-3-yl)-N-{2-fluoro-6-[2-(propan-2-yl)pyrimidin-5-yl]phenyl}-4-methylpiperidine-1-carboxamide] | 144% |
| Cc1ccc(C2CCN(C(=S)Nc3c(F)cccc3N3CCN(C(C)C)CC3)CC2)cc1 [Example 64, N-{2-fluoro-6-[4-(propan-2-yl)piperazin-1-yl]phenyl}-4-(4-methylphenyl)piperidine-1-carbothioamide] | 140% |
| CC(C)N1CCN(c2cccc(Cl)c2NC(=O)N2CCC(C)(c3noc(C4CC4)n3)CC2)CC1 [Example 67, N-{2-chloro-6-[4-(propan-2-yl)piperazin-1-yl]phenyl}-4-(5-cyclopropyl-1,2,4-oxadiazol-3-yl)-4-methylpiperidine-1-carboxamide] | 154% |
| COc1cccc(C2=CCN(C(C)C)CC2)c1NC(=O)N1CCC(c2ccc(C)cc2)CC1 [Example 47, N-{2-methoxy-6-[1-(propan-2-yl)-1,2,3,6-tetrahydropyridin-4-yl]phenyl}-4-(4-methylphenyl)piperidine-1-carboxamide] | 165% |
| CC(C)N1CC=C(c2cccc(F)c2NC(=O)N2CCC(C)(c3nc4ccccc4o3)CC2)CC1 [Example 50, 4-(1,3-benzoxazol-2-yl)-N-{2-fluoro-6-[1-(propan-2-yl)-1,2,3,6-tetrahydropyridin-4-yl]phenyl}-4-methylpiperidine-1-carboxamide] | 187% |

Further lines, results first:

| Agonist Activity (%) | SMILES |
| --- | --- |
| 126% | Cc1ccc(C2CCN(C(=O)Nc3c(F)cccc3C3CCN(C(C)CF)CC3)CC2)cc1 (centres unmarked) [Example 137, N-{2-fluoro-6-[1-(1-fluoropropan-2-yl)piperidin-4-yl]phenyl}-4-(4-methylphenyl)piperidine-1-carboxamide] |
| 179% | CC(C)N1CCN(c2cccc(Cl)c2NC(=O)N2CCC(F)(c3noc(C4CC4)n3)CC2)CC1 [Example 94, N-{2-chloro-6-[4-(propan-2-yl)piperazin-1-yl]phenyl}-4-(5-cyclopropyl-1,2,4-oxadiazol-3-yl)-4-fluoropiperidine-1-carboxamide] |
| 203% | CC(C)c1ncc(C2(C)CCN(C(=O)Nc3c(Cl)cccc3N3CCN(C(C)C)CC3)CC2)o1 [Example 93, N-{2-chloro-6-[4-(propan-2-yl)piperazin-1-yl]phenyl}-4-methyl-4-[2-(propan-2-yl)-1,3-oxazol-5-yl]piperidine-1-carboxamide] |
| 105% | Cc1ccc(C2CCN(C(=O)Nc3ccccc3N3CCN(C)CC3)CC2)cc1 [Example 123, 4-(4-methylphenyl)-N-[2-(4-methylpiperazin-1-yl)phenyl]piperidine-1-carboxamide] |
| 97% | Cc1ccc(C2CCN(C(=O)Nc3c(F)cccc3N3C[C@H]4C[C@@H]3CN4C(C)C)CC2)cc1 [Example 151, N-{2-fluoro-6-[(1R,4R)-5-(propan-2-yl)-2,5-diazabicyclo[2.2.1]heptan-2-yl]phenyl}-4-(4-methylphenyl)piperidine-1-carboxamide] |
| 136% | CC(C)N1C[C@H]2C[C@@H]1CN2c1cccc(F)c1NC(=O)N1CCC(C)(c2noc(C3CC3)n2)CC1 [Example 152, 4-(5-cyclopropyl-1,2,4-oxadiazol-3-yl)-N-{2-fluoro-6-[(1R,4R)-5-(propan-2-yl)-2,5-diazabicyclo[2.2.1]heptan-2-yl]phenyl}-4-methylpiperidine-1-carboxamide] |
| 38% | CCN1CCCN(c2ccccc2NC(=O)N2CCC(C)(c3noc(C4CC4)n3)CC2)CC1 [Example 156, 4-(5-cyclopropyl-1,2,4-oxadiazol-3-yl)-N-[2-(4-ethyl-1,4-diazepan-1-yl)phenyl]-4-methylpiperidine-1-carboxamide] |
| 145% | Cc1cc(C2(C)CCN(C(=O)Nc3c(F)cccc3N3CCN(C(C)C)CC3)CC2)no1 [Example 85, N-{2-fluoro-6-[4-(propan-2-yl)piperazin-1-yl]phenyl}-4-methyl-4-(5-methyl-1,2-oxazol-3-yl)piperidine-1-carboxamide] |
| 164% | Cc1onc(C2(C)CCN(C(=O)Nc3c(Cl)cccc3N3CCN(C(C)C)CC3)CC2)c1Cl [Example 90, 4-(4-chloro-5-methyl-1,2-oxazol-3-yl)-N-{2-chloro-6-[4-(propan-2-yl)piperazin-1-yl]phenyl}-4-methylpiperidine-1-carboxamide] |
| 154% | CC(C)N1CCN(c2cccc(Cl)c2NC(=O)N2CCC(C)(c3noc(CC(F)(F)F)n3)CC2)CC1 [Example 119, N-{2-chloro-6-[4-(propan-2-yl)piperazin-1-yl]phenyl}-4-methyl-4-[5-(2,2,2-trifluoroethyl)-1,2,4-oxadiazol-3-yl]piperidine-1-carboxamide] |
